Reference: US8628931B2, “mTOR pathway theranostic” (George Mason Intellectual Properties, Inc., priority 2005, dated 2014)

How the values were obtained:
Format in all cases: in vivo, mouse
[1] = system: Rh30 alveolar rhabdomyosarcoma xenograft; assay: CCI-779 suppression of Rh30 rhabdomyosarcoma xenograft tumor growth; details: Rh30 orthotopic xenograft, SCID beige mice, 20 mg/kg IP every 3 days for 30 days, calipers
Experimental: (§1) (FIG. 6A) Time dependent CCI-779 inhibition of phosphorylation of mTOR pathway downstream substrates within tumor tissue in a xenograft treatment model. […] (FIG. 6B) CCI-779 inhibited tumor growth in Rh30 and RD mouse xenograft models. 2×10^6 cells in 0.2 mL total volume per mouse, from either Rh30 alveolar or RD embryonal cell lines, were injected orthotopically into the left hind leg gastrocnemius muscle of a SCID beige murine model. After 1 week, mice were assigned to control (n=8) or CCI-779 treatment groups (n=8). Tumor volume, as measured with calipers, was less in the CCI-779 treatment group as compared to the vehicle alone for both the Rh30 and RD xenografts --▴-- RD control, -▪- Rh30 plus CCI-779, -- ♦-- Rh30 control --X- RD plus CCI-779, (RD p=0.00008; Rh30 p=0.0002, Student's t-test). (FIG. 6C) CCI-779 was administered at 20 mg/kg/IP every 3 days for 30 days. Protein extracts from Rh30 and RD mouse xenograft tumors or uninvolved muscle were treated with CCI-779 or vehicle for 30 days and analyzed by Western blotting for S6 and 4EBP1 phosphorylation.
(§2) 5. In vivo xenograft tumor model. […] Tumor growth was measured every 3 days with calipers, and tumor volume was calculated by the formula V (mm^3)=a×b^2, where a is the longest tumor axis, and b is the shortest tumor axis. […]

[2] = system: RD embryonal rhabdomyosarcoma xenograft; assay: CCI-779 suppression of RD rhabdomyosarcoma xenograft tumor growth; details: RD orthotopic xenograft, SCID beige mice, 20 mg/kg IP every 3 days for 30 days, calipers
Experimental: as §1, §2

[3] = system: mTOR pathway substrates pS6 Ser235/236 and 4EBP1 Thr70; assay: Time dependent inhibition of phosphorylation of mTOR pathway downstream substrates in xenograft treatment model (FIG. 6A); details: non-involved muscle and tumor tissue, compared to actin
Experimental: as §1, §2

[4] = system: mTOR downstream targets 4EBP1 and S6; assay: Western blotting for S6 and 4EBP1 phosphorylation, Rh30 xenograft tumors or uninvolved muscle
Experimental: as §1, §2

[5] = system: mTOR downstream targets 4EBP1 and S6; assay: Western blotting for S6 and 4EBP1 phosphorylation, RD xenograft tumors or uninvolved muscle
Experimental: as §1, §2

## CO[C@H]1C[C@@H]2CC[C@@H](C)[C@@](O)(O2)C(=O)C(=O)N2CCCC[C@H]2C(=O)O[C@H]([C@H](C)C[C@@H]2CC[C@@H](OC(=O)C(C)(CO)CO)[C@H](OC)C2)CC(=O)[C@H](C)/C=C(\C)[C@@H](O)[C@@H](OC)C(=O)[C@H](C)C[C@H](C)/C=C/C=C/C=C/1C [CCI-779, 40-[3-hydroxy(hydroxymethyl)methylpropanoate]-rapamycin]
[1]
  Tumor volume / tumor growth compared to vehicle alone: less and profoundly reduced the growth
[2]
  Tumor volume / tumor growth compared to vehicle alone: less and profoundly reduced the growth
[3]
  Phosphorylation of 4EBP1 Thr70: inhibited phosphorylation
  Phosphorylation of pS6 Ser235/236: inhibited phosphorylation
[4]; Rh30 alveolar xenograft derived tumors
  Phosphorylation of mTOR downstream targets (4EBP1 and S6): inhibited the expected phosphorylation
[4]; Rh30 muscle and tumor cells, 20 mg/kg IP every 3 days for 30 days, Western blot
  Phosphorylation of 4EBP1: suppresses phosphorylation
[5]; RD embryonal xenograft derived tumors
  Phosphorylation of mTOR downstream targets (4EBP1 and S6): inhibited the expected phosphorylation
[5]; RD muscle and tumor cells, 20 mg/kg IP every 3 days for 30 days, Western blot
  Phosphorylation of 4EBP1: suppresses phosphorylation
